Data: patent publication US10335409B2 (priority 2012, dated 2019)
Read-outs that look alike come from different tables or passages of the source.

Tests used:
[1] = molecular target: HCV NS3 protease domain genotype 3a (Hepatitis C virus genotype 3a, UniProt Q81258); assay: Ki determination, NS3 protease genotype 3a (fluorogenic depsipeptide substrate); format: biochemical; details: 200 pM enzyme, NS4A peptide
Summary of the method: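 The NS3 protease domain (aa 1-181) with 20 μM NS4A peptide was used at 50 pM with 4 μM substrate (1b) or at 200 pM with 2 μM substrate (3a). Inhibitors (100 nM-5 pM) were pre-incubated 1 h at room temperature in HEPES/glycerol/DTT buffer with 10% DMSO. Steady-state rates (90-120 min) gave Ki via the Morrison equation, corrected for active enzyme and [S]/Km.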

[2] = test system: genotype 1a NS3/4a protease inhibitor resistant variant R155K transient HCV replicon in Huh-7-derived cells; assay: Transient-transfected HCV replicon EC50, genotype 1a R155K; format: cell-based, hepatitis C virus; details: 72 h
[3] = test system: genotype 2a (JFH-1) stable HCV replicon in Huh-7-derived cells; assay: Stable subgenomic HCV replicon EC50, genotype 2a (Renilla luciferase); format: cell-based, hepatitis C virus; details: stable replicon genotype 2a, 72 h, read-out: EC50 2A RLUC
Summary of the method: (§1)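 Compounds, three-fold diluted, were applied to Huh-7-derived cells harbouring luciferase replicons (genotype 1a H77, 1b Con1, 2a JFH-1, 4a ED43, with strain-specific adaptive mutations). Seventy-two hours later, intracellular replication was gauged by Renilla luciferase activity and EC50 derived by regression.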

[4] = test system: genotype 1b (Con1) stable HCV replicon in Huh-7-derived cells; assay: Stable subgenomic HCV replicon EC50, genotype 1b (Renilla luciferase); format: cell-based, hepatitis C virus; details: stable replicon genotype 1b, 72 h, read-out: EC50 1B RLUC
Summary of the method: as §1

[5] = test system: genotype 1b NS3/4a protease inhibitor resistant variant D168A transient HCV replicon in Huh-7-derived cells; assay: Transient-transfected HCV replicon EC50, genotype 1b D168A; format: cell-based, hepatitis C virus; details: 72 h
[6] = test system: genotype 1a (H77) stable HCV replicon in Huh-7-derived cells; assay: Stable subgenomic HCV replicon EC50, genotype 1a (Renilla luciferase); format: cell-based, hepatitis C virus; details: stable replicon genotype 1a, 72 h, read-out: EC50 1A RLUC
Summary of the method: as §1

[7] = test system: genotype 1b (Con1) wild type transient HCV replicon in Huh-7-derived cells; assay: Transient-transfected HCV replicon EC50, genotype 1b wild type; format: cell-based, hepatitis C virus; details: 72 h, transient-transfected replicon genotype 1b wild type, read-out: EC50 1B WT
[8] = test system: genotype 3a (S52) stable HCV replicon in Huh-7-derived cells; assay: Stable subgenomic HCV replicon EC50, genotype 3a (Renilla luciferase); format: cell-based, hepatitis C virus; details: 72 h, read-out: EC50 3A RLUC
[9] = test system: genotype 4a (ED43) stable HCV replicon in Huh-7-derived cells; assay: Stable subgenomic HCV replicon EC50, genotype 4a (Renilla luciferase); format: cell-based, hepatitis C virus; details: 72 h, read-out: EC50 4A RLUC
Summary of the method: as §1

[10] = test system: genotype 1a (H77) wild type transient HCV replicon in Huh-7-derived cells; assay: Transient-transfected HCV replicon EC50, genotype 1a wild type; format: cell-based, hepatitis C virus; details: 72 h, transient-transfected replicon genotype 1a wild type, read-out: EC50 1A WT
[11] = molecular target: HCV NS3 protease domain genotype 1b (Hepatitis C virus genotype 1b (isolate Con1), UniProt Q9WMX2, E1202G); assay: Ki determination, NS3 protease genotype 1b (fluorogenic depsipeptide substrate); format: biochemical; details: 50 pM enzyme, NS4A peptide
Chain of HCV NS3 protease domain genotype 1b (Q9WMX2 1027-1208 E1202G): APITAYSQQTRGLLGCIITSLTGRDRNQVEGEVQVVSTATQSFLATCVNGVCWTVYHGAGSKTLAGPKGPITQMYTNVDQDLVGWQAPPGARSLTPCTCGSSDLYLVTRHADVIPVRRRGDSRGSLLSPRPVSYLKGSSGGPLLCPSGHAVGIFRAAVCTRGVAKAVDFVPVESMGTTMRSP
Procedure: Purified NS3 protease domain (amino acids 1-181) of the genotype 1b and 3a virus were generated as above.
Reactions were run at room temperature in buffer consisting of 50 mM HEPES, 40% glycerol, 0.05% Triton X-100, 10 mM DTT, and 10% DMSO. The final assay solutions contained 50 pM NS3 genotype 1 b protease or 200 pM genotype 3a protease, 20 μM NS4A peptide, and 4 μM substrate (genotype 1b) or 2 μM substrate (genotype 3a). Inhibitor concentrations varied from 100 nM to 5 pM in 3-fold dilutions, and no-inhibitor controls were included.
Compound dilutions were made in DMSO at 20× final concentration. Reaction mixtures were prepared in 96-well assay plates. A solution of enzyme and NS4A peptide in assay buffer (25 μL volume with both reagents at 4× final concentration) was mixed with 45 μL assay buffer and 5 μL of either inhibitor or DMSO, and pre-incubated at room temperature for 1 hour. The reaction was started by addition of 25 μL substrate solution at 4× final concentration. Plates were mixed vigorously for 5-10 seconds and reactions were allowed to proceed for 90 minutes, fluorescence was measured every 30 s between 90 and 120 minutes reaction time using a Tecan InfiniTe M1000 or PerkinElmer Envision multimode plate reader with an excitation wavelength of 340 nm and an emission wavelength of 490 nm.
To determine the Ki, rates were plotted as a function of inhibitor concentration, and the data were fit with equation 1 (Morrison, J. F., Biochimica et Biophysica Acta 1969, 185, 269-286) to calculate Ki^app using GraphPad Prism 5. […] Ki was calculated from Ki^app/(1+[[S]/Km]).

[12] = test system: genotype 3a (S52) wild type transient HCV replicon in Huh-7-derived cells; assay: Transient-transfected HCV replicon EC50, genotype 3a wild type; format: cell-based, hepatitis C virus; details: transient-transfected replicon genotype 3a wild type, 72 h; read-out: EC50 3A WT
[13] = Hepatitis C virus, read-out: EC50 1A R155K, transient-transfected replicon genotype 1a R155K resistant variant, 72 h
[14] = Hepatitis C virus, read-out: EC50 1B D168A, transient-transfected replicon genotype 1b D168A resistant variant, 72 h
[15] = transient-transfected replicon genotype 1a R155K resistant variant, read-out: EC50 1A R155K
[16] = transient-transfected replicon genotype 1b D168A resistant variant, read-out: EC50 1B D168A
[17] = stable replicon genotype 3a, Renilla luciferase
[18] = stable replicon genotype 4a, Renilla luciferase

Chain of HCV NS3 protease domain genotype 3a (Q81258 whole entry, looked up, the tested form may be a part): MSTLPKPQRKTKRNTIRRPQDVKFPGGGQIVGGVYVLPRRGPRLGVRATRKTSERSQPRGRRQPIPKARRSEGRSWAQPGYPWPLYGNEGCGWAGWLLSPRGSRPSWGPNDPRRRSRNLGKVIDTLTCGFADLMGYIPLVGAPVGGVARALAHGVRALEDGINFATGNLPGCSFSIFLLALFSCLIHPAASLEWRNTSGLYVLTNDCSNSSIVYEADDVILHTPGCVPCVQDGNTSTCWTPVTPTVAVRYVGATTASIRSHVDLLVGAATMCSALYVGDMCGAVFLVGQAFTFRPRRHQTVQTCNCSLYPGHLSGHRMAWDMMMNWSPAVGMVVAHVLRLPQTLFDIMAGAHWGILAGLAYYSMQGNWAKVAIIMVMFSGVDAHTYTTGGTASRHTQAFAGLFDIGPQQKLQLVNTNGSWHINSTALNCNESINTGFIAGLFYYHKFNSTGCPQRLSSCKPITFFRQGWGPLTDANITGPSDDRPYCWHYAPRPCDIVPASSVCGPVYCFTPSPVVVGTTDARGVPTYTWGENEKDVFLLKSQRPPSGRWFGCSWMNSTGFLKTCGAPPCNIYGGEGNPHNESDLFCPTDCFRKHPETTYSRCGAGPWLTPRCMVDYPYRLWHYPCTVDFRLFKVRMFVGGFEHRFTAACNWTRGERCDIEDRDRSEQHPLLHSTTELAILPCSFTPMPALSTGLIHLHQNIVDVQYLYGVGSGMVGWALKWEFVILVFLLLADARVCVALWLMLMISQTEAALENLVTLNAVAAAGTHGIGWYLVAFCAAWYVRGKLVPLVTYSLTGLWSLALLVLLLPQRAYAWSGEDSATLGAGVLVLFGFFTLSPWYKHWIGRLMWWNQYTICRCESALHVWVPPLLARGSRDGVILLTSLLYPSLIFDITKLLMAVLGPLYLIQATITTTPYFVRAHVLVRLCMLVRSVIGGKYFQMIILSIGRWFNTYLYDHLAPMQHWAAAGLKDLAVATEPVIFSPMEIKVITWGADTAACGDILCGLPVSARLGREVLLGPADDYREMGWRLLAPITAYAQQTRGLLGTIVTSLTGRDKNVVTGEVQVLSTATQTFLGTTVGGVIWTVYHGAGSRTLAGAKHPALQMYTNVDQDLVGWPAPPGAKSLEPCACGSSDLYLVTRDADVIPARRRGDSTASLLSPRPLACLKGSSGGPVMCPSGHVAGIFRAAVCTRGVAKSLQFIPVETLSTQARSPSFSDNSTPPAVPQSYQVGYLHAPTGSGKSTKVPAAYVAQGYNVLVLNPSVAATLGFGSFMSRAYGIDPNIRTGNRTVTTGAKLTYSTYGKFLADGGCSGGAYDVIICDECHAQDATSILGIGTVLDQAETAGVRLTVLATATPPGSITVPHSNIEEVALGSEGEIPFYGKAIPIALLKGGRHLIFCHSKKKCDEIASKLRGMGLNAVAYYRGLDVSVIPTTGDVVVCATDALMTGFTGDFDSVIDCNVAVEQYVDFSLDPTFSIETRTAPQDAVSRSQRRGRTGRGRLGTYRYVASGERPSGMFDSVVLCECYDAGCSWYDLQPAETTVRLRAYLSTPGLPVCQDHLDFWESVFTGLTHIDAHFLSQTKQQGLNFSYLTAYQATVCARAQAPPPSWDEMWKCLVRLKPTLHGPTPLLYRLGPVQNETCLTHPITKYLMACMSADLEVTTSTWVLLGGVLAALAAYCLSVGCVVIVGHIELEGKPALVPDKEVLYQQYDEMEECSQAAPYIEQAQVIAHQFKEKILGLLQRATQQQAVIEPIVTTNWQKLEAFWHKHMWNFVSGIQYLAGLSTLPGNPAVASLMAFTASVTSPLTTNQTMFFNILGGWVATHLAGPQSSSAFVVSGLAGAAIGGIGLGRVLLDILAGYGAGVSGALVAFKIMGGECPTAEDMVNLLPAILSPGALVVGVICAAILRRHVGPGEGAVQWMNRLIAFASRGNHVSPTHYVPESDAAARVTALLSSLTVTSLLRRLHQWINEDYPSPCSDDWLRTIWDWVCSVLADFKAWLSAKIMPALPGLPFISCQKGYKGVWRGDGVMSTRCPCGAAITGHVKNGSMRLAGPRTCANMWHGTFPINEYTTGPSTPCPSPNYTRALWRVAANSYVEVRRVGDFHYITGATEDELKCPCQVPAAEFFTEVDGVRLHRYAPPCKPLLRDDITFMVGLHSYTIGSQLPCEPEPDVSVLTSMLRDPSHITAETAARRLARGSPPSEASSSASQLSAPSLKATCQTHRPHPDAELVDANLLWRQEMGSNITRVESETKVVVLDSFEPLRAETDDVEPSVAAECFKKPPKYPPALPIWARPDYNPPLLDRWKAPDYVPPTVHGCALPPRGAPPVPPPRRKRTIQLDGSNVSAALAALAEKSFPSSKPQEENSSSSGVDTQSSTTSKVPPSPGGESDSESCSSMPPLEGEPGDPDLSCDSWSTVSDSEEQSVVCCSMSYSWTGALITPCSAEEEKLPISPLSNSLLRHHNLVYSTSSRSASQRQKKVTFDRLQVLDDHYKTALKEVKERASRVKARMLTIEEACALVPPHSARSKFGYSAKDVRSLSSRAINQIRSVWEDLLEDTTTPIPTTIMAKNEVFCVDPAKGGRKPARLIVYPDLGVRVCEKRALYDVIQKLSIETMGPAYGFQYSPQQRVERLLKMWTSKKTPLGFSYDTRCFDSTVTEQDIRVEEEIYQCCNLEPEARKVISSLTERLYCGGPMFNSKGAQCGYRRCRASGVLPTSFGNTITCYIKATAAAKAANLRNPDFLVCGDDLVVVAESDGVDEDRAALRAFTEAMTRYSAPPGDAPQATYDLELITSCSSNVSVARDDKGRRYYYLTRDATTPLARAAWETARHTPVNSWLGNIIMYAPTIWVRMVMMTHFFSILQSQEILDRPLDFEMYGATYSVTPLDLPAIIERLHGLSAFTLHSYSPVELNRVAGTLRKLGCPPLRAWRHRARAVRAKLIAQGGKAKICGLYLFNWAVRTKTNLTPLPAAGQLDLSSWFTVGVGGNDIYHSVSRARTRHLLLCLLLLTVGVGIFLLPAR

Molecule | Ki [1] | EC50 [2, 13] | EC50 ([3]; Hepatitis C virus) | EC50 ([4]; Hepatitis C virus) | EC50 [5, 14] | EC50 ([6]; Hepatitis C virus) | EC50 ([7]; Hepatitis C virus) | EC50 ([8]; Hepatitis C virus) | EC50 ([9]; Hepatitis C virus) | EC50 ([10]; Hepatitis C virus) | Ki [11] | also measured
CC[C@@H]1[C@@H]2CN(C(=O)[C@H](C(C)(C)C)NC(=O)O[C@@H]3CCC[C@H]3CCCCCc3nc4ccc(OC)cc4nc3O2)[C@@H]1C(=O)N[C@]1(C(=O)NS(=O)(=O)C2CC2)C[C@H]1C(F)F [Example 5, (3aR,7S,10S,11S,12R,24aR)-7-tert-butyl-N-[(1R,2R)-1-[(cyclopropylsulfonyl)carbamoyl]-2-(difluoromethyl)cyclopropyl]-11-ethyl-16-methoxy-5,8-dioxo-1,2,3,3a,5,6,7,8,11,12,20,21,22,23,24,24a-hexadecahydro-10H-9,12-methanocyclopenta[18,19][1,10,3,6]dioxadiazacyclononadecino[11,12-b]quinoxaline-10-carboxamide] | 0.17 nM | 17 nM | 11 nM | 7.4 nM | 91 nM | 8.7 nM | 3.2 nM | 405 nM | 6.9 nM | 3.7 nM | 0.04 nM | 
CC[C@@H]1[C@@H]2CN(C(=O)[C@H](C(C)(C)C)NC(=O)O[C@@H]3[C@H]4CC[C@H](C4)[C@H]3CCCCCc3nc4ccc(OC)cc4nc3O2)[C@@H]1C(=O)N[C@]1(C(=O)NS(=O)(=O)C2CC2)C[C@H]1C(F)F [Example 13, (1R,4S,4aR,8S,11S,12S,13R,25aR)-8-tert-butyl-N-[(1R,2R)-1-[(cyclopropylsulfonyl)carbamoyl]-2-(difluoromethyl)cyclopropyl]-12-ethyl-17-methoxy-6,9-dioxo-2,3,4,4a,6,7,8,9,12,13,21,22,23,24,25,25a-hexadecahydro-1H,11H-1,4:10,13-dimethanoquinoxalino[2,3-k][1,10,3,6]benzodioxadiazacyclononadecine-11-carboxamide] | 0.18 nM | 59 nM | 26 nM | 9.5 nM | 209 nM | 13 nM | 3.1 nM | 685 nM | 11 nM | 8.6 nM | 0.04 nM | 
CC[C@@H]1[C@@H]2CN(C(=O)[C@H](C3CCCC3)NC(=O)O[C@@H]3C[C@H]3CCCCCc3nc4ccc(OC)cc4nc3O2)[C@@H]1C(=O)N[C@]1(C(=O)NS(=O)(=O)C2(C)CC2)C[C@H]1C(F)F [Example 14, (1aR,5S,8S,9S,10R,22aR)-5-cyclopentyl-N-[(1R,2R)-2-(difluoromethyl)-1-{[(1-methylcyclopropyl)sulfonyl]carbamoyl}cyclopropyl]-9-ethyl-14-methoxy-3,6-dioxo-1,1a,3,4,5,6,9,10,18,19,20,21,22,22a-tetradecahydro-8H-7,10-methanocyclopropa[18,19][1,10,3,6]dioxadiazacyclononadecino[11,12-b]quinoxaline-8-carboxamide] | 0.24 nM | 21 nM | 7 nM | 6.8 nM | 99 nM | 9.7 nM | 4 nM | 308 nM | 7.3 nM | 7.4 nM | 0.07 nM | 
COc1ccc2nc3c(nc2c1)O[C@H]1CN(C(=O)[C@H](C(C)(C)C)NC(=O)O[C@@H]2[C@H]4CC[C@H](C4)[C@H]2CCCCC3)[C@H](C(=O)N[C@]2(C(=O)NS(=O)(=O)C3CC3)C[C@H]2C(F)F)[C@@H]1C [Example 26, (1R,4S,4aR,8S,11S,12S,13R,25aR)-8-tert-butyl-N-[(1R,2R)-1-[(cyclopropylsulfonyl)carbamoyl]-2-(difluoromethyl)cyclopropyl]-17-methoxy-12-methyl-6,9-dioxo-2,3,4,4a,6,7,8,9,12,13,21,22,23,24,25,25a-hexadecahydro-1H,11H-1,4:10,13-dimethanoquinoxalino[2,3-k][1,10,3,6]benzodioxadiazacyclononadecine-11-carboxamide] | 0.17 nM | 12 nM | 12 nM | 4.3 nM | 109 nM | 6.3 nM | 1.9 nM | 297 nM | 6 nM | 3.6 nM | 0.05 nM | 
CCC[C@@H]1[C@@H]2CN(C(=O)[C@H](C(C)(C)C)NC(=O)O[C@@H]3C[C@H]3CCCCCc3nc4ccc(OC)cc4nc3O2)[C@@H]1C(=O)N[C@]1(C(=O)NS(=O)(=O)C2(C)CC2)C[C@H]1C(F)F [Example 29, (1aR,5S,8S,9S,10R,22aR)-5-tert-butyl-N-[(1R,2R)-2-(difluoromethyl)-1-{[(1-methylcyclopropyl)sulfonyl]carbamoyl}cyclopropyl]-14-methoxy-3,6-dioxo-9-propyl-1,1a,3,4,5,6,9,10,18,19,20,21,22,22a-tetradecahydro-8H-7,10-methanocyclopropa[18,19][1,10,3,6]dioxadiazacyclononadecino[11,12-b]quinoxaline-8-carboxamide] | 0.12 nM | 11 nM | 11 nM | 8.9 nM | 48 nM | 10 nM | 3.1 nM | 137 nM | 7.2 nM | 4.8 nM | 0.06 nM | 
CC[C@@H]1[C@@H]2CN(C(=O)[C@H](C(C)(C)C)NC(=O)O[C@@H]3C[C@H]3CC/C=C/C(F)(F)c3nc4ccc(OC)cc4nc3O2)[C@@H]1C(=O)N[C@]1(C(=O)NS(=O)(=O)C2(C)CC2)C[C@H]1C(F)F [Example 89] | 0.05 nM |  |  |  |  |  |  |  |  |  |  | EC50 [2, 15]: 3.7 nM; EC50 [3]: 4.3 nM; EC50 [4]: 6.1 nM; EC50 [5, 16]: 5.1 nM; EC50 [6]: 6 nM; EC50 [7]: 3.2 nM; EC50 [8, 17]: 19 nM; EC50 [12]: 5.5 nM; EC50 [9, 18]: 4.6 nM; EC50 [10]: 6 nM
(1aR,5S,8S,9S,10R,22aR)-5-tert-butyl-14-chloro-N-[(1R,2R)-2-(difluoromethyl)-1-{[(1-methylcyclopropyl)sulfonyl]carbamoyl}cyclopropyl]-18,18-difluoro-9-methyl-3,6-dioxo-1,1a,3,4,5,6,9,10,18,19,20,21,22,22a-tetradecahydro-8H-7,10-methanocyclopropa[18,19][3,6]dioxadiazacyclononadecino[11,12-b]quinoxaline-8-carboxamide [Example 88] | 0.29 nM |  |  |  |  |  |  |  |  |  |  | EC50 [2, 15]: 14 nM; EC50 [3]: 2.7 nM; EC50 [4]: 4.6 nM; EC50 [5, 16]: 24 nM; EC50 [6]: 9.3 nM; EC50 [7]: 5.5 nM; EC50 [8, 17]: 105 nM; EC50 [12]: 35 nM; EC50 [9, 18]: 4.1 nM; EC50 [10]: 5 nM
